One series relates to chronic EAE model of MS. The series is described as follows: Chronic EAE model of MS (MOG-immunized B6 mice). The class given is in vivo. As to the method:
(§1) EAE Induction. Immunization: 8-10 week old B6/WT or SJL/WT mice were s.c. injected over four sites in the flank with 200 μg MOG 35-55 or […] (CS bio) in an emulsion with CFA (Difco). 200 ng pertussis toxin (List) per mouse in PBS was injected i.p. at the time of immunization and 48 h later. Adoptive transfer: Splenocytes were isolated from naïve 5-10-week-old Vα2.3/Vβ8.2 TCR transgenic mice and activated with 10 μg/ml of MBP Ac1-11 with or without rmIL-6 in 24-well plates at […] with irradiated B10.PL splenocytes (6×10^8 cells/well). After 72 hours, the cells were washed with PBS and 8×10^6 were injected i.p. into naïve B10.PL mice. Evaluation. The mice were evaluated daily for clinical signs of EAE. Mice were scored on scale of 0 to 6:0, no clinical disease; 1, limp/flaccid tail; 2, moderate hind limb weakness; 3. severe hind limb weakness; 4. complete hind limb paralysis; 5 quadriplegia or premoribund state; and 6, death.
The in vivo efficacy of LLL12b was also evaluated in chronic EAE model of MS in immunized B6 mice by treating EAE mice with […] of LLL12b for 7 days after disease onset. FIGS. 8A-8B show representative data for the effect of a representative disclosed compound, LLL12b, for suppression of EAE development in a chronic EAE model of MS. Briefly, naïve WT/B6 mice were immunized with […].

In series [1] the test system is relapsing-remitting EAE model of MS. The experiment in a line: Relapsing-remitting EAE model of MS (PLP-immunized SJL mice). Type of series: in vivo. The note with it: 10 mg/kg daily, days 9-15 or days 36-42. The procedure:
as §1
SJL mice develop relapsing-remitting disease after immunization with PLP 139-151, which resembles human relapsing-remitting MS, the major subtype of MS that affects more than 85% of MS patients. […]

Series [2] has as its system splenocytes from naïve TCR transgenic mice. The experiment in a line: Cellular toxicity, trypan blue exclusion assay. As to conditions: 24 h, 48 h, 72 h; at the doses showing significant suppression of IL-17 production. Type of series: cell-based. As to the method: In vitro toxicity evaluation of new STAT3 prodrugs. Cellular toxicity testing was carried out using a trypan blue exclusion assay as described herein. FIGS. 6A-6C show representative data for cell viability after treatment with DMSO or the indicated concentration of the indicated representative prodrug at 24 h, 48 h, and 72 h post-treatment. The data were obtained using a trypan blue exclusion assay using splenocytes from naïve TCR transgenic mice that were cultured as described.

The subject of series [3] is adoptively transferred EAE. The series is described as follows: Adoptively transferred EAE model of MS (B10.PL mice). Type of series: in vivo. The procedure:
as §1
The in vivo efficacy of LLL12b was evaluated in adoptively transferred EAE model by treating EAE mice with […] of LLL12b for 7 days after disease onset. FIGS. 9A-9C show representative data for the effect of a representative disclosed compound, LLL12b, on suppression of EAE development in an adoptive transfer EAE model of MS. […] The mice were then treated with either DMSO or a representative disclosed compound, LLL12b, (10 mg/kg) by daily intraperitoneal for 7 days. […] The summary of all four independent experiments was shown below in Table 1.
EAE was induced via adoptive transfer of activated myelin-specific CD4 T cells from Vα2.3/Vβ8.2 TCR transgenic mice into B10.PL mice. LLL12b or DNSO (vehicle control) was injected i.p. into mice daily for 7 days, starting when 70% of the mice developed clinical EAE. Mice were monitored for clinical signeds of EAE. Assessment of clinical EAE includes the incidence of EAE, the mean peak clinical scores±SEM and the area under the curve. The results of three independent experiments are shown. ^aP<0.01, comparing incidence of EAE in LLL12b group versus DMSO group. ^bP<0.01, comparing mean peak clinical score of LLL12b group versus DMSO group. ^cP<0.05, comparing area under the curve of LLL12b group versus DMSO group.
LLL12b treatment suppresses the production of inflammatory cytokines in myelin-specific CD4 T cells and promotes Treg development in vivo. The ex vivo analysis to determine the T effector function of myelin-specific CD4 T cells as well as Treg development in treated mice was carried. FIGS. 10A-10C show representative data for the effect of treatment with a representative disclosed compound. LLL12b, on Treg development in an adoptively transferred EAE model of MS. Briefly, splenocytes from were isolated from either a LLL12b- or DMSO-treated group as indicated and analysed.

Structures are written as SMILES. Marks after values point to notes of the source that are not given here.

On to `CN(C)C(=O)Oc1cccc2c1C(=O)c1cccc(S(N)(=O)=O)c1C2=O` [LLL12b], for which the “EAE development (mean clinical score)” value in the series on chronic EAE model of MS (10 mg/kg for 7 days, day 14 to day 20, after disease onset) is recorded as “significantly suppresses EAE development”. The “IL-17 production of splenocytes from treated mice (ELISA)” value in the series with chronic EAE model of MS (ex vivo, activated with MOG 35-55 for 3 days) is “decreased IL-17 production”. Moreover, the “acute and relapsing EAE (mean clinical score)” value in series [1] is “significantly suppresses acute and relapsing EAE”. Also, in series [2], the “cellular toxicity (cell viability, trypan blue exclusion)” value is recorded as “minimal cellular toxicity”. Also, the “EAE development (in words)” value in series [3] (10 mg/kg daily intraperitoneal for 7 days after disease onset) is reported as “significantly suppresses EAE development”. The “level of CD25+FoxP3+CD4+ Treg cells in splenocytes of treated animals” value in series [3] (ex vivo flow cytometry) is given as “statistically significant increase”. Besides, in series [3] (ex vivo, activated with MBP Ac1-11 for 3 days), the “production of IFNγ by splenocytes of treated animals (ELISA)” value was “notable decrease”. In addition, the “Area under the curve (clinical score)” value in series [3] (i.p. daily for 7 days) is given as 22.12 ± 2.09 ^c. Further, the “Incidence of EAE (%)” value in series [3] (i.p. daily for 7 days, starting when 70% of the mice developed clinical EAE) is reported as 26/34 (76%) ^a. Also, in series [3] (i.p. daily for 7 days, ± SEM), the “Mean peak clinical score” value was 2.03 ± 0.27 ^b.

Values taken from US12594265B2, “Methods and compositions for inhibition of STAT3” (Ohio State Innovation Foundation, priority 2017, dated 2026).
